US9585386B2, “Microbicidal composition” (Dow Global Technologies LLC, priority 2013, dated 2017)
Several values for one entry are separate records, joined by “and”; a condition that tells them apart may be missing. Equal entries are not always repeated. Where two headings read alike, the source gives them in different places.

Legend:
Format in all cases: cell-based
any organism tested = test: Synergy of other biocides paired with surfactants; settings: for ratio of surfactant to biocide where synergy was observed: not commercially relevant (less biocide relative to surfactant)
Protocol: (§1) Surfactants and biocides were evaluated for synergy by determining the synergy index (S.I.) of the combination. Synergy index was calculated based on minimum inhibitory concentrations (MIC) of two antimicrobial compounds (A and B) alone and in combinations. The tests organisms were Gram negative bacteria (Pseudomonas aeruginosa ATCC #15442), Gram positive bacteria (Staphylococcus aureus ATCC #6538), yeast (Candida albicans ATCC #10203) and mold (Aspergillus niger ATCC#16404). Contact time for the bacteria was 24 and 48 hours, yeast was 48 and 72 hrs, and 3 and 7 days for mold. The test was carried out in 96 well microtiter plates. • Surf. A R^1O(CH2CH(CH3)O)5(CH2CH2O)9H, where R^1 is 2-ethylhexyl • Surf. D R^2O(CH2CH(CH3)O)3(CH2CH2O)5H • Surf. E R^2O(CH2CH(CH3)O)3(CH2CH2O)7H In Surf. D and Surf. E, R^2 is a mixture of C8-C14 linear alkyl groups (70% C8-C10 linear alkyl and 30% C12-C14 linear alkyl) Inoculums Used
(§2) SI is calculated as follows: Ca/CA+Cb/CB=Synergy Index (“SI”)
(§3) Wherein: • CA=concentration of compound A in ppm, acting alone, which produced an end point (MIC of Compound A). • Ca=concentration of compound A in ppm, in the mixture, which produced an end point. • CB=concentration of compound B in ppm, acting alone, which produced an end point (MIC of Compound B). • Cb=concentration of compound B in ppm, in the mixture, which produced an end point. When the sum of Ca/CA and Cb/CB is greater than one, antagonism is indicated.
A • Sodium Benzoate, TRIS NITRO Surf. E • DMDMH Surf. […] At these ratios, the biocide levels in a formulated product would be too low to be practical: Surf. A • DIDAC, IPBC Surf. E • CMIT/MIT, IPBC, OIT, TTPC, WSCP Surf.

[1] = system: Aspergillus niger ATCC#16404; test: MIC / synergy index test in 96 well microtiter plates, mold; settings: PDB, 3rd day; for MIC: Aspergillus niger, ATCC16404, read-out: CB (MIC of compound B alone), MIT alone, inoculum 1.156E+06 CFU/ml; for Cb (concentration of compound B in the mixture which produced an end point): 1.156E+06 CFU/ml
Protocol: as §1
(§4) The pH of the Triptic soy broth was 7.3 and the Potato dextrose broth was 5.1.
as §2, §3

[2] = system: Candida albicans ATCC #10203; test: MIC / synergy index test in 96 well microtiter plates, yeast; settings: for CB (MIC of compound B alone): MIT alone; for CB (MIC of compound B alone) / Cb (concentration of compound B in the mixture which produced an end point): PDB, 48 hrs
Protocol: as §1, §4, §2, §3

[3] = system: Pseudomonas aeruginosa ATCC #15442; test: MIC / synergy index test in 96 well microtiter plates, Gram negative bacteria; settings: for Cb (concentration of compound B in the mixture which produced an end point): 1/10 TSB, 24 hrs; for MIC: Pseudomonas aeruginosa, ATCC15442, 24 h
Protocol: as §1, §4, §2, §3

[4] = system: Staphylococcus aureus ATCC #6538; test: MIC / synergy index test in 96 well microtiter plates, Gram positive bacteria
Protocol: as §1, §4, §2, §3

CC1(C)C(=O)N(CO)C(=O)N1CO [DMDMH]
Synergy against any organism tested (any organism tested; biocide paired with Surf. D): no synergy | Synergy against any organism tested (any organism tested; biocide paired with Surf. E): no synergy

CCCCCCCCCC[N+](C)(C)CCCCCCCCCC.[Cl-] [DIDAC]
ratio of surfactant to biocide where synergy was observed (any organism tested; biocide paired with Surf. A): 1:0.2 or greater | ratio of surfactant to biocide where synergy was observed (any organism tested; biocide paired with Surf. D): 1:0.2 or greater

CCC12COCN1COC2 [CS-1246]
Synergy against any organism tested (any organism tested; biocide paired with Surf. D): no synergy

O=C([O-])c1ccccc1.[Na+] [Sodium Benzoate]
Synergy against any organism tested (any organism tested; biocide paired with Surf. A): no synergy

O=[N+]([O-])C(CO)(CO)CO [TRIS NITRO]
Synergy against any organism tested (any organism tested; biocide paired with Surf. A): no synergy

Oc1ccccc1-c1ccccc1 [OPP]
Synergy against any organism tested (any organism tested; biocide paired with Surf. D): no synergy

CCCCCCCCn1sccc1=O [OIT]
ratio of surfactant to biocide where synergy was observed (any organism tested; biocide paired with Surf. D): 1:0.2 or greater | ratio of surfactant to biocide where synergy was observed (any organism tested; biocide paired with Surf. E): 1:0.2 or greater

CCCCNC(=O)OCC#CI [IPBC]
ratio of surfactant to biocide where synergy was observed (any organism tested; biocide paired with Surf. A): 1:0.2 or greater | ratio of surfactant to biocide where synergy was observed (any organism tested; biocide paired with Surf. D): synergistic only at 1:0.05 or worse | ratio of surfactant to biocide where synergy was observed (any organism tested; biocide paired with Surf. E): 1:0.2 or greater

Cn1sccc1=O [MIT, 2-methyl-4-isothiazolin-3-one]
MIC ([1]; Surf. A series): 400 µg/mL | MIC ([1]; Surf. E series): 300 µg/mL | Cb (concentration of compound B in the mixture which produced an end point) ([1]; MIT in mixture with Surf. A): 300 ppm | Cb (concentration of compound B in the mixture which produced an end point) ([1]; MIT in mixture with Surf. E): 200 ppm | MIC ([2]; Candida albicans, ATCC10203, 48 h, read-out: CB (MIC of compound B alone)): 200 µg/mL | CB (MIC of compound B alone) ([2]; Surf. D series, inoculum 5.726E+05 CFU/ml): 200 ppm | CB (MIC of compound B alone) ([2]; Surf. E series, inoculum 1.808E+06): 200 ppm | Cb (concentration of compound B in the mixture which produced an end point) ([2]; MIT in mixture with Surf. A, 1.156E+06 CFU/ml): 100 ppm | Cb (concentration of compound B in the mixture which produced an end point) ([2]; MIT in mixture with Surf. D, 5.726E+05 CFU/ml): 50 ppm and 60 ppm and 80 ppm and 100 ppm | Cb (concentration of compound B in the mixture which produced an end point) ([3]; MIT in mixture with Surf. A, 8.134E+07 CFU/ml): 30 ppm | Cb (concentration of compound B in the mixture which produced an end point) ([3]; MIT in mixture with Surf. D, 1.16E+08): 20 ppm | MIC ([3]; read-out: CB (MIC of compound B alone), MIT alone, Surf. A series, 1/10 TSB, inoculum 8.134E+07 CFU/ml): 40 µg/mL | MIC ([3]; read-out: CB (MIC of compound B alone), MIT alone, Surf. D series, 1/10 TSB, inoculum 1.16E+08): 30 µg/mL | CB (MIC of compound B alone) ([4]; MIT alone, Surf. E series, 1/10 TSB, inoculum 1.808E+06 CFU/ml, 24 hrs): 60 ppm | Cb (concentration of compound B in the mixture which produced an end point) ([4]; MIT in mixture with Surf. E, 1/10 TSB, 1.808E+06 CFU/ml, 24 hrs): 50 ppm and 40 ppm and 30 ppm | MIC ([4]; Staphylococcus aureus, ATCC6538, 24 h, read-out: CB (MIC of compound B alone)): 60 µg/mL

CCCCCCCCCCCCCC[P+](CCCC)(CCCC)CCCC.[Cl-] [TTPC]
ratio of surfactant to biocide where synergy was observed (any organism tested; biocide paired with Surf. E): 1:0.2 or greater

Cn1sc2ccccc2c1=O [MBIT]
ratio of surfactant to biocide where synergy was observed (any organism tested; biocide paired with Surf. D): synergistic only at 1:0.05 or worse
